# In paper PMC7835349 (Communications Biology, 2021):
# “And” between values parts separate entries of the source, which are not always exact repeats. Identical values can stand only once.
# How the values were obtained:
# [1] = test system: cleaved caspase-3 (CC3); test: Cleaved caspase-3 in RS4;11 tumours by MSD ELISA; type: in vivo, C.B-17 SCID mouse; conditions: for CC3 PD fold over vehicle, individual tumours: RS4;11, single dose 10 mg/kg or equivalent
# Description: Tumours were excised, snap frozen in liquid nitrogen and stored at –80 °C. Tumours were homogenised in lysis buffer containing protease and phosphatase inhibitors, protein concentration determined by Pierce BCA Protein Assay Kit and diluted in lysis buffer to a protein concentration of 0.4 μg/μL. Cleaved caspase-3 (CC3) was measured using the mesoscale cleaved caspase-3 (Asp175) assay whole cell lysate kit according to manufacturer’s instructions. Induction of CC3 was expressed as fold change of treated tumours over vehicle control.
# [2] = test system: telemetered rats; test: Conscious rat telemetry (QRS amplitude, blood pressure, tolerability); conditions: for QRS amplitude (mV change): individual rats; for QRS amplitude (mV change), Mean: mean of rats;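 for all read-outs here: male Han Wistar rats carrying implanted telemetry transmitters, with ECG and arterial pressure recorded continuously while unrestrained in their home cage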
# Description: Male Han Wistar rats were implanted with HD‐S11 transmitters (Data Sciences International, St. Paul, MN USA) under isoflurane anaesthesia, the telemetry transmitter was placed in the peritoneal cavity, the arterial blood pressure catheter was placed in the terminal abdominal aorta and the ECG electrodes were sutured, one at the dorsal surface of the xiphoid process and one at the anterior mediastinum, close to the right atrium[42]. Animals were allowed to recover for at least 2 weeks and were around 2–3 months at the time of experimentation. The animals were pair‐housed in standard rat cages with a non‐instrumented companion throughout the study. Cages were prepared with bedding material and enrichment.
# Telemetry recordings took place in the home cage. […] The animals were removed from the cage temporarily for dosing and blood sampling. Animals were not subject to restraint except where dosing and blood sampling was performed. Data acquisition used Dataquest Open A.R.T.™ with HEM software version 4.2 (Notocord Inc).
# For evaluation of AZD4320, n = 8 rats received single doses of 0 (vehicle: 30% Kleptose, pH9) or 10 mg/kg AZD4320, administered as a 30-min intravenous infusion. A cross-over study design was used, with an interval of 7 days between treatments.
# Data for all parameters were collected continuously during the recording period. The continuous data from each animal was binned into chosen time intervals of varying length and averaged to generate a single data point for each reported nominal time. Each reported nominal timepoint was then averaged across each of the animals tested for each dose level.
# [3] = rat, AZD4320 10 mg/kg, 0 h post dose
# [4] = rat, Dose 10 mg/kg (AZD4320 equivalent 10 for AZD4320, 3 for conjugates)
structure (smiles),measurement,setting,value
CN(CCO)CCC(CSc1ccccc1)Nc1ccc(S(=O)(=O)NC(=O)c2ccc(N3CCC(C(O)c4ccccc4-c4ccc(Cl)cc4)CC3)cc2)cc1S(=O)(=O)C(F)(F)F (centres unmarked) [AZD4320],"CC3 PD fold over vehicle, individual tumours","[1]; 0.5 h, 10 mg/kg",36.58 fold over vehicle and 31.76 fold over vehicle
same,"CC3 PD fold over vehicle, individual tumours","[1]; 1 h, 10 mg/kg",36.44 fold over vehicle and 36.82 fold over vehicle
same,"CC3 PD fold over vehicle, individual tumours","[1]; 5 h, 10 mg/kg",42.22 fold over vehicle and 39.06 fold over vehicle
same,"CC3 PD fold over vehicle, individual tumours","[1]; 24 h, 10 mg/kg",21.02 fold over vehicle and 47.67 fold over vehicle
same,time of onset of CC3 activation,"[1]; RS4;11 tumours, 10 mg/kg or equivalent",≤ 0.5 h
same,maximal activation of cleaved caspase-3 (CC3),"[1]; RS4;11 tumours, 10 mg/kg, by 5 h, sustained for 24 h",40 fold
same,decrease in QRS amplitude,"[2]; rat, 10 mg/kg AZD4320",40%
same,rats in which dose was tolerated,"[2]; rat, 10 mg/kg AZD4320, 8 rats evaluated",6 of the 8
same,QRS amplitude (mV change),[2]; [3],0 mV
same,"QRS amplitude (mV change), Mean",[2]; [3],0 mV
same,QRS amplitude (mV change),"[2]; rat, AZD4320 10 mg/kg, 0.5 h post dose, 10 mg/kg",0.05 mV and -0.49 mV (2×) and -0.03 mV and 0.27 mV and -0.09 mV
same,"QRS amplitude (mV change), Mean","[2]; rat, AZD4320 10 mg/kg, 0.5 h post dose",-0.13 mV
same,QRS amplitude (mV change),"[2]; rat, AZD4320 10 mg/kg, 1 h post dose, 10 mg/kg",-0.55 mV and -0.92 mV and 0.04 mV and -0.24 mV and -0.19 mV and -0.87 mV
same,"QRS amplitude (mV change), Mean","[2]; rat, AZD4320 10 mg/kg, 1 h post dose",-0.46 mV
same,QRS amplitude (mV change),"[2]; rat, AZD4320 10 mg/kg, 1.5 h post dose, 10 mg/kg",-0.76 mV and -0.96 mV (2×) and 0.29 mV and -0.3 mV and -0.18 mV
same,"QRS amplitude (mV change), Mean","[2]; rat, AZD4320 10 mg/kg, 1.5 h post dose",-0.48 mV
same,QRS amplitude (mV change),"[2]; rat, AZD4320 10 mg/kg, 2 h post dose, 10 mg/kg",-0.73 mV and -0.96 mV and -0.38 mV and -0.26 mV (2×) and -1.03 mV
same,"QRS amplitude (mV change), Mean","[2]; rat, AZD4320 10 mg/kg, 2 h post dose",-0.60 mV
same,QRS amplitude (mV change),"[2]; rat, AZD4320 10 mg/kg, 3 h post dose, 10 mg/kg",-0.79 mV and -0.63 mV and -0.28 mV and -0.4 mV and -0.48 mV and -0.99 mV
same,"QRS amplitude (mV change), Mean","[2]; rat, AZD4320 10 mg/kg, 3 h post dose",-0.60 mV
same,QRS amplitude (mV change),"[2]; rat, AZD4320 10 mg/kg, 3.5 h post dose, 10 mg/kg",-0.8 mV and -0.81 mV and -0.54 mV and -0.38 mV and -0.47 mV and -1 mV
same,"QRS amplitude (mV change), Mean","[2]; rat, AZD4320 10 mg/kg, 3.5 h post dose",-0.67 mV
same,QRS amplitude (mV change),"[2]; rat, AZD4320 10 mg/kg, 4 h post dose, 10 mg/kg",-0.8 mV and -1.02 mV and -0.16 mV and -0.35 mV and -0.65 mV and -0.98 mV
same,"QRS amplitude (mV change), Mean","[2]; rat, AZD4320 10 mg/kg, 4 h post dose",-0.66 mV
same,QRS amplitude (mV change),"[2]; rat, AZD4320 10 mg/kg, 6 h post dose, 10 mg/kg",-0.76 mV and -1 mV and -0.2 mV and -0.16 mV and -0.57 mV and -0.7 mV
same,"QRS amplitude (mV change), Mean","[2]; rat, AZD4320 10 mg/kg, 6 h post dose",-0.57 mV
same,QRS amplitude (mV change),"[2]; rat, AZD4320 10 mg/kg, 8 h post dose, 10 mg/kg",-0.63 mV (3×) and 0.08 mV and -0.08 mV and -0.57 mV
same,"QRS amplitude (mV change), Mean","[2]; rat, AZD4320 10 mg/kg, 8 h post dose",-0.41 mV
same,QRS amplitude (mV change),"[2]; rat, AZD4320 10 mg/kg, 10 h post dose, 10 mg/kg",-0.56 mV and -0.75 mV and 0.54 mV and 0.03 mV and -0.61 mV and -0.59 mV
same,"QRS amplitude (mV change), Mean","[2]; rat, AZD4320 10 mg/kg, 10 h post dose",-0.32 mV
same,QRS amplitude (mV change),"[2]; rat, AZD4320 10 mg/kg, 12 h post dose, 10 mg/kg",-0.6 mV and -0.97 mV and -0.25 mV and 0.18 mV and -0.42 mV and -0.58 mV
same,"QRS amplitude (mV change), Mean","[2]; rat, AZD4320 10 mg/kg, 12 h post dose",-0.44 mV
same,QRS amplitude (mV change),"[2]; rat, AZD4320 10 mg/kg, 16 h post dose, 10 mg/kg",-0.44 mV and -0.8 mV and 0.61 mV and -0.14 mV and -0.6 mV and -0.72 mV
same,"QRS amplitude (mV change), Mean","[2]; rat, AZD4320 10 mg/kg, 16 h post dose",-0.35 mV
same,QRS amplitude (mV change),"[2]; rat, AZD4320 10 mg/kg, 24 h post dose, 10 mg/kg",-0.56 mV and -0.96 mV and -0.74 mV and -0.13 mV and -0.57 mV and -0.76 mV
same,"QRS amplitude (mV change), Mean","[2]; rat, AZD4320 10 mg/kg, 24 h post dose",-0.62 mV
same,"QRS amplitude (mV change), Mean","[2]; rat, AZD4320 10 mg/kg, […] post dose",-0.58 mV
same,Blood pressure decrease,[2]; [4],Yes
same,QRS amplitude decrease,[2]; [4],Yes
same,Tolerated?,[2]; [4],6/8
same,effect on QRS amplitude,"[2]; telemetered rat, AZD4320 10 mg/kg, conjugates 30 mg/kg IV",marked and prolonged reduction in QRS amplitude
